This data set can be described thus: Chemical and physical stability studies under ICH storage conditions (extraction, HPLC, appearance). In kind it is physicochemical. Particulars: in Composition A; for calculated initial percentage of actives: before storage, HPLC; for calc. percentage of actives after storage for one month, 25° C. / calc. percentage of actives after storage for two months, 25° C.: 25° C./60% RH; for calc. percentage of actives after storage for one month, 30° C. / calc. percentage of actives after storage for two months, 30° C.: 30° C./60% RH; for calc. percentage of actives after storage for one month, 40° C. / calc. percentage of actives after storage for two months, 40° C.: 40° C./75% RH.

Consider four compounds from US6638981B2, “Topical compositions and methods for treating pain” (EpiCept Corporation, priority 2001, dated 2003).

Where a name gives a salt, the structure may show the parent alone.

Turning to `CN(C)CCC=C1c2ccccc2CCc2ccccc21` [Amitriptyline Hydrochloride, Amitriptyline hydrochloride], the “calculated initial percentage of actives” value is given as 102.5%; the “calc. percentage of actives after storage for one month, 25° C.” value (“calc. percentage … for one month, 25° C.” below) is recorded as 103%; the “calc. percentage of actives after storage for two months, 25° C.” value (from here on “calc. percentage … for two months, 25° C.”) is given as 101%; the “calc. percentage of actives after storage for one month, 30° C.” value (“calc. percentage … for one month, 30° C.” below) is recorded as 102%. In addition, the “calc. percentage of actives after storage for two months, 30° C.” value (from here on “calc. percentage … for two months, 30° C.”) was 102%; the “calc. percentage of actives after storage for one month, 40° C.” value (“calc. percentage … for one month, 40° C.” below) was 103%; the “calc. percentage of actives after storage for two months, 40° C.” value (from here on “calc. percentage … for two months, 40° C.”) is recorded as 102%.
In the case of `CNC1(c2ccccc2Cl)CCCCC1=O` (stereo not shown) [Ketamine Hydrochloride, Ketamine hydrochloride], the “calculated initial percentage of actives” value is listed as 100.4%; the “calc. percentage … for one month, 25° C.” value is reported as 103%; the “calc. percentage … for two months, 25° C.” value was 100%; the “calc. percentage … for one month, 30° C.” value is recorded as 102%. In addition, the “calc. percentage … for two months, 30° C.” value is 100%; the “calc. percentage … for one month, 40° C.” value is 103%; the “calc. percentage … for two months, 40° C.” value was 102%.
As to `COC(=O)c1ccc(O)cc1` [Methylparaben], the “calculated initial percentage of actives” value is 104.4%; the “calc. percentage … for one month, 25° C.” value is on record as 103%; the “calc. percentage … for two months, 25° C.” value is 101%; the “calc. percentage … for one month, 30° C.” value was 102%. Moreover, the “calc. percentage … for two months, 30° C.” value is 102%; the “calc. percentage … for one month, 40° C.” value is on record as 102%; the “calc. percentage … for two months, 40° C.” value is given as 102%.
For the compound `CCCOC(=O)c1ccc(O)cc1` [Propylparaben], the “calculated initial percentage of actives” value is 101.8%; the “calc. percentage … for one month, 25° C.” value is 102%; the “calc. percentage … for two months, 25° C.” value is on record as 102%; the “calc. percentage … for one month, 30° C.” value was 102%. The “calc. percentage … for two months, 30° C.” value is 103%; the “calc. percentage … for one month, 40° C.” value is 102%; the “calc. percentage … for two months, 40° C.” value was 103%.
